Where two headings read alike, the source gives them in different places. Where only a bound is given, the exact number is not on record here.

Format in all cases: cell-based
Assay [1] has as its system NRF2 protein. The assay can be described thus: Western blot analysis of NRF2 protein abundance and downstream targets in cell lines. In general terms: In western blotting, separated proteins are transferred to a membrane and probed.
In assay [2] the test system is NRF2 protein. Described as above. The conditions noted are these: for NRF2 protein abundance: 24-48 hours, PYR 10 μM, analogs 1 μM (104 in HEK293T 10 μM), MTX and PEM 0.1 μM, CG 10 μM. How it is done: (§1) Western Blots: KYSE70, HEK293T cells were plated and 24 hours later treated with compounds (see figure legends for details). Either at 24 or 48 hours later, cells were scrapped in RIPA buffer (0.2% deoxycholate, 0.1% SDS, 1% NP40, 150 mM NaCl, 50 mM Tris pH 7.4, 2 mM EDTA) supplemented with protease and phosphatase inhibitors, cleared at 14000×g for 15 minutes at 4° C., and supernatants were quantified by BCA assay (Pierce, 23225). Protein samples (20 μg) were prepared with 1×LDS buffer with 100 mM DTT, ran on NuPAGE 4-12% Bis-tris gels, and transferred onto a […] nitrocellulose membrane (Thermo, 88018). All blots were blocked in 5% milk in TBST for 30 minutes. After incubation of the primary antibody overnight at 4° C. and washed three times with 1×TBST, blots were incubated with LI-COR secondary antibodies for 1-2 hours, washed in 1×TBST thrice, and then imaged via a LI-COR Odyssey instrument (Li-COR, Lincoln, Nebr.).

For assay [3], the system named is NRF2 mRNA and NRF2 target gene mRNA. The assay can be described thus: RT-qPCR of NRF2 mRNA and NRF2 downstream targets in KYSE70 cells. The conditions noted are these: 24 or 48 hours, PYR 10 μM, analogs 1 μM, MTX and PEM 0.1 μM. How it is done:
(§2) qRT-PCR: Total RNA was extracted using PureLink RNA kit following the manufacturers protocol. Primers for qPCR were designed using the National Center for Biotechnology Information's (NCBI) Primer-BLAST platform. For primer sequences, see Table 2. RNA was quantified using a Nanodrop One (Thermo, Waltham, Mass.), and the reverse transcription reaction was performed using 2 μg of RNA with the iSCRIPT Clear kit with DNAse (Biorad, 170-8891). For the qRT-PCR, PowerUP SYBR Green (Thermo, A25741) was used, and data were analyzed on an AB QuantStudio 6 Flex Real Time PCR machine (Applied Biosystems, Foster City, Calif.). ΔCT values were normalized to housekeeping gene RPL13a and then normalized to DMSO for final ΔΔCT value.

Assay [4] has as its system NRF2 activity in H1299-NQO1-YFP cells. The assay can be described thus: NRF2 activity reporter IC50 in H1299-NQO1-YFP cells vs NRF2 pathway activators (IncuCyte, YFP/mCherry). The conditions noted are these: for suppression of NRF2 activity (in words): IC50 experiments at the doses tested. As for the experimental part: Readings were taken every 2 hours for at least 24 hours. […] Readings were also taken every 2 hours for 96 hours in and IncuCyte S3.
(§3) YFP total intensity (correlating to NRF2 activity) was normalized to NLS-mCherry (cell number) total intensity to give a ratio (YFP/mCherry). Ratios at one time point at least 24 hours post compounds were added were used. These numbers were then plotted in Graphpad Prism to calculate IC50s. […] From three biological replicates, percent confluence was used for proliferation assays to calculate IC50s, calculations performed using Graphpad Prism.

The subject of the next assay is AXIN2 and CK1γ1 mRNA. The assay can be described thus: qRT-PCR of AXIN2 and CK1γ1 mRNA (not NRF2 target genes) in KYSE70 cells. The following applies: KYSE70, 48 hours; 1 μM 115, 0.1 μM MTX, 0.1 μM PEM.
Text: Single experiment shown. AXIN2 and CK1γ1 were done in same experiment, but separated for discussion. Error bars are SD and * represents p-value <0.05.
as §2
Background: Real-time PCR tracks product formation cycle by cycle.

Another assay relates to KYSE70 cells. The assay can be described thus: Proliferation IC50 (percent confluence, IncuCyte) in KYSE70 cells. The conditions noted are these: Homo sapiens, KYSE-70, 96 h, read-out: proliferation IC50. As for the experimental part:
as §3, with “IncuCyte and IC50 calculations: […] […] Readings were taken every 2 hours for at least 24 hours. […] Readings were also taken every 2 hours for 96 hours in and IncuCyte S3. YFP total” for “YFP total”

In another assay the test system is H1299 cells. The assay can be described thus: Proliferation IC50 (percent confluence, IncuCyte) in H1299 cells. The conditions noted are these: Homo sapiens, NCI-H1299, 96 h, read-out: proliferation IC50. As for the experimental part:
as §3, with “IncuCyte and IC50 calculations: […] […] Readings were taken every 2 hours for at least 24 hours. […] Readings were also taken every 2 hours for 96 hours in and IncuCyte S3. YFP total” for “YFP total”

A further assay concerns the target T1, DHFR protein (Homo sapiens, UniProt P00374).
T1 construct: endogenous in cells; host or cells: KYSE70, HEK293T, H1299, A549, OE21, PC-9
T1 sequence (P00374 1-187): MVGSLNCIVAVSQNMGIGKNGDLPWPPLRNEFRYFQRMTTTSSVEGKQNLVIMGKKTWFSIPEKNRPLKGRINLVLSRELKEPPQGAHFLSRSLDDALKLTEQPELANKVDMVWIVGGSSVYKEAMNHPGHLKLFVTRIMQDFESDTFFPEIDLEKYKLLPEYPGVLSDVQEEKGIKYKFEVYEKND
The assay can be described thus: Western blot for DHFR protein stabilization. The following applies: western blot at the doses used. As for the experimental part:
as §1

The test system of assay [5] is mutant KEAP1 activation of NRF2 pathway in H1299-NQO1-YFP cells. The assay can be described thus: H1299-NQO1-YFP reporter cells transfected with mutant KEAP1. The following applies: 10 μM PYR, mutant KEAP1 overexpressed. How it is done: Data is of 3 independent experiments, error bars are SD.
H1299-NQO1-YFP cells were transfected with WT, R320Q, R470C, or V115F FLAG-KEAP1 constructs using Lipofectamine 2000. […] Calculations are detailed below. This was performed in biological triplicate and error bars are SD.

[6] abbreviates: Table 3, activator CDDO 100 nM, H1299-NQO1-YFP cells, read-out: CDDO 100 nM IC50 μM ± SEM.
Setting [7] is: Table 3, activator SULF 2 μM, H1299-NQO1-YFP cells, read-out: SULF 2 μM IC50 μM ± SEM.
[8] abbreviates: Table 3, average over activators, H1299-NQO1-YFP cells, read-out: Avg IC50.
[9] abbreviates: read-out: PRL295 5 μM IC50 μM ± SEM, Table 3, activator PRL295 5 μM, H1299-NQO1-YFP cells.

On to `Nc1nc(=O)c2c([nH]1)NCC(CNc1ccc(C(=O)N[C@@H](CCC(=O)O)C(=O)O)cc1)N2C=O` (mixture of isomers) [FA, Folinic Acid], for which the “stabilization of NRF2 by FA alone” value in the assay on NRF2 protein [1] (H1299, 10 ng/ml FA, 24 hr) is “no stabilization of NRF2”.

With `CC1(C)N=C(N)N=C(N)N1c1ccc(Cl)cc1` [CG, reference compound], the NRF2 protein abundance entry in the assay with NRF2 protein [2] (western blot) was “decreased”. Further, the “NRF2 mRNA and NRF2 target gene mRNA” value in [3] is on record as “decreased”. Besides, the IC50 in [4] (setting [6]) amounted to 1.82 ± 0.085 µM; in assay [4] (setting [7]), 1.5 ± 0.0466 µM; in assay [4] (setting [8]) it was 1.7 µM; in assay [4] (setting [9]) it was 1.57 ± 0.008 µM.

As to `CN(Cc1cnc2nc(N)nc(N)c2n1)c1ccc(C(=O)N[C@@H](CCC(=O)O)C(=O)O)cc1` [MTX, Methotrexate, reference compound], the “AXIN2 and CK1γ1 mRNA” value with AXIN2 and CK1γ1 mRNA is “decreased AXIN2 and CK1γ1 mRNA”. For the same compound, the IC50 in the assay on KYSE70 cells turned out to be 12.4 nM; in assay [4] (setting [6]) it was 0.0008 µM; in [4] (setting [7]), 0.0358 ± 0.0031 µM; in assay [4] (setting [8]), 0.0202 µM; in assay [4] (setting [9]), 0.024 ± 0.0024 µM. Further, the NRF2 protein abundance entry in the assay on NRF2 protein [2] (western blot) is “decreased”. Moreover, the “NRF2 mRNA and NRF2 target gene mRNA” value in [3] is given as “decreased”.

Take `Nc1nc2[nH]cc(CCc3ccc(C(=O)N[C@@H](CCC(=O)O)C(=O)O)cc3)c2c(=O)[nH]1` [PEM, reference compound]: in the assay with AXIN2 and CK1γ1 mRNA, the “AXIN2 and CK1γ1 mRNA” value was “decreased AXIN2 and CK1γ1 mRNA”. Also, the NRF2 protein abundance entry in the assay with NRF2 protein [2] (western blot) was “did not”. For the same compound, in assay [3], the “NRF2 mRNA and NRF2 target gene mRNA” value is recorded as “did not”. Besides, the “suppression of NRF2 activity (in words)” value in [4] is on record as “only partial suppression of NRF2 activity”. Besides, the IC50 in assay [4] (setting [6]) is 0.334 ± 0.03 µM; in [4] (setting [7]), 0.382 ± 0.0374 µM; in assay [4] (setting [8]), 0.276 µM; in [4] (setting [9]), 0.112 ± 0.0068 µM.

For `CCc1nc(N)nc(N)c1-c1ccc(Cl)cc1` [PYR, 5-(4-chlorophenyl)-6-ethylpyrimidine-2,4-diamine, reference compound], the IC50 was determined as 1240 nM in the assay on KYSE70 cells; 3830 nM in the assay with H1299 cells; 1.2 µM in [4] (read-out: Avg IC50 μM, Table 1 and text, average over activators CDDO, PRL295, SULF, H1299-NQO1-YFP cells); 1.23 µM in assay [4] (read-out: Avg IC50 μM, Table 3, average over activators, H1299-NQO1-YFP cells); 1.23 µM in [4] (read-out: Avg IC50 μM, Table 6 NRF2 inhibitors); 1.25 ± 0.024 µM in assay [4] (read-out: CDDO 0.1 μM IC50 μM ± SEM, Table 1, activator CDDO 0.1 μM, H1299-NQO1-YFP cells). Besides, the IC50 in [4] (read-out: CDDO 100 nM IC50 μM ± SEM, Table 3, activator CDDO 100 nM, H1299-NQO1-YFP cells) stood at 1.25 ± 0.024 µM; in assay [4] (setting [9]) it was 0.873 ± 0.032 µM; in [4] (read-out: PRL295 5 μM IC50 AM ± SEM, Table 1, activator PRL295 5 μM, H1299-NQO1-YFP cells), 0.873 ± 0.032 µM; in assay [4] (read-out: SULF 2 μM IC50 μM ± SEM, Table 1, activator SULF 2 μM, H1299-NQO1-YFP cells), 1.59 ± 0.0448 µM; in [4] (read-out: SULF 2 μM IC50 μM ± SEM, Table 3, activator SULF 2 μM, H1299-NQO1-YFP cells), 1.59 ± 0.0448 µM. Moreover, the “NRF2 protein on co-treatment with Bortezomib” value with NRF2 protein [2] (BORT 0.04 μM co-treatment, HEK293T, H1299) is “prevented PYR from decreasing NRF2”. Besides, the “expression of downstream NRF2 target proteins” value in the assay on NRF2 protein [2] (western blot, PYR treatment) is “decreased expression of downstream NRF2 target proteins”. In addition, in the assay with NRF2 protein [2] (western blot), the NRF2 protein abundance entry is listed as “decreases NRF2 protein abundance”. Moreover, the “NRF2 mRNA and NRF2 target gene mRNA” value in assay [3] is “abrogated NRF2 mRNA and NRF2 target gene mRNA decrease”. In addition, on DHFR protein, the DHFR protein stabilization result is “DHFR protein was stabilized”. Besides, the “NRF2 protein levels with MLN induced stabilization” value in the assay with NRF2 protein [1] (H1299, 10 μM PYR or 1 μM 115 with 0.5 μM MLN, 24 hours) is “Neither PYR nor 115 can decrease NRF2 protein levels”. Moreover, the “mutant KEAP1 activation of the NRF2 pathway” value in assay [5] is listed as “repressed mutant KEAP1 activation of the pathway”.

As to `CCc1nc(N)ncc1-c1ccc(Cl)cc1` [WCDD101, 5-(4-chlorophenyl)-4-ethylpyrimidin-2-amine], the “suppression of NRF2 activity (in words)” value in assay [4] is “did not have any effect on NRF2 activity”. The IC50 is above 20 µM in assay [4] (Table 1 and text, average over activators CDDO, PRL295, SULF, H1299-NQO1-YFP cells, read-out: Avg IC50); above 20 µM in [4] (Table 6 NRF2 inhibitors, read-out: Avg IC50). The DHFR protein stabilization result at DHFR protein is listed as “DHFR was not stabilized”.

The record behind these values is patent publication US20220289686A1, “COMPOSITIONS OF NRF2 INHIBITING AGENTS AND METHODS OF USE THEREOF” (Washington University, priority 2021, published 2022).
